Measurements published in US20240391862A1, “(1,4,5-TRISUBSTITUTED-1H-PYRAZOL-3-YL)OXY-2-ALKOXY ALKYL ACIDS AND THEIR DERIVATIVES, THEIR SALTS AND THEIR USE AS HERBICIDAL AGENTS” (Bayer AKtiengesellschaft, priority 2021, published 2024).

What was measured:
[1] = test system: LOLRI; assay: Post-emergence herbicidal effect, greenhouse pot test; format: in vivo, Lolium rigidum; conditions: Lolium rigidum, 504 h, 320 g/ha, read-out: Post-emergence effect against LOLRI in %
Procedure, shortened: (§1)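 Greenhouse pot test: weeds and crops sown in sandy loam, sprayed post-emergence at one-leaf stage (2–3 weeks after sowing) with WP or EC formulations plus 0.5% additive at 600 l/ha water, rates 20–320 g/ha. Visual rating about 3 weeks later versus untreated controls (100% = dead, 0% = as control).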

[2] = test system: ABUTH; assay: as above; format: in vivo, Abutilon theophrasti; conditions: Abutilon theophrasti, 504 h, visual rating about 3 weeks after treatment, read-out: Post-emergence effect against ABUTH
Procedure, shortened: as §1

[3] = test system: ALOMY; assay: as above; format: in vivo, Alopecurus myosuroides; conditions: Alopecurus myosuroides, 504 h, 320 g/ha, visual rating about 3 weeks after treatment, read-out: Post-emergence effect against ALOMY
Procedure, shortened: as §1

[4] = test system: ZEAMX; assay: Post-emergence herbicidal effect and crop plant compatibility, greenhouse pot test; format: in vivo, Zea mays; conditions: one-leaf stage, rated visually after about 3 weeks vs untreated controls; for plant injury at 20 g/ha: read-out: Post-emergence effect at 20 g/ha against ZEAMX in %
Procedure, shortened: (§2)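 Greenhouse pot plants in sandy loam receive a one-leaf-stage spray at 20 to 320 g/ha. Activity is assessed visually around 3 weeks afterwards on a 0–100% scale, where 100% means the plants have died.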

[5] = test system: SETVI; assay: Post-emergence herbicidal effect, greenhouse pot test; format: in vivo, Setaria viridis; conditions: Setaria viridis, 504 h, 320 g/ha, read-out: Post-emergence effect against SETVI in %
Procedure, shortened: as §1

[6] = test system: PHBPU; assay: as above; format: in vivo, Ipomoea purpurea; conditions: Ipomoea purpurea, 504 h, read-out: Post-emergence effect against PHBPU in %
Procedure, shortened: as §1

[7] = test system: AVEFA; assay: as above; format: in vivo, Avena fatua; conditions: 320 g/ha, visual rating about 3 weeks after treatment; for pest or weed control at 320 g/ha: Avena fatua, 504 h, read-out: Post-emergence effect against AVEFA
Procedure, shortened: as §1

[8] = test system: ECHCG; assay: as above; format: in vivo, Echinochloa crus-galli; conditions: Echinochloa crus-galli, 504 h, read-out: Post-emergence effect against ECHCG in %
Procedure, shortened: as §1

[9] = test system: VERPE; assay: as above; format: in vivo, Veronica persica; conditions: Veronica persica, 504 h, read-out: Post-emergence effect against VERPE in %
Procedure, shortened: as §1

[10] = test system: AMARE; assay: as above; format: in vivo, Amaranthus retroflexus; conditions: Amaranthus retroflexus, 504 h, visual rating about 3 weeks after treatment, read-out: Post-emergence effect against AMARE
Procedure, shortened: as §1

[11] = test system: DIGSA; assay: as above; format: in vivo, Digitaria sanguinalis; conditions: Digitaria sanguinalis, 504 h, 320 g/ha, visual rating about 3 weeks after treatment, read-out: Post-emergence effect against DIGSA
Procedure, shortened: as §1

[12] = test system: TRZAS; assay: Post-emergence herbicidal effect and crop plant compatibility, greenhouse pot test; format: in vivo, Triticum aestivum; conditions: 20 g/ha, one-leaf stage, rated visually after about 3 weeks vs untreated controls; for percent crop injury (phytotoxicity) to wheat, post-emergence at 20 g/ha: Triticum aestivum, 504 h, read-out: Post-emergence effect at 20 g/ha against TRZAS in %
Procedure, shortened: as §2

[13] = test system: VIOTR; assay: Post-emergence herbicidal effect, greenhouse pot test; format: in vivo, Viola tricolor; conditions: Viola tricolor, 504 h, read-out: Post-emergence effect against VIOTR in %
Procedure, shortened: as §1

[14] = test system: POLCO; assay: as above; format: in vivo, Fallopia convolvulus; conditions: for pest or weed control at 80 g/ha / pest or weed control at 320 g/ha: Fallopia convolvulus, 504 h, read-out: Post-emergence effect against POLCO in %
Procedure, shortened: as §1

[15] = test system: KCHSC; assay: as above; format: in vivo
Procedure, shortened: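 Visual rating of activity against untreated plants (100% = plants died, 0% = no effect), done about 3 weeks after treatment. Compounds applied at 20–320 g/ha as aqueous spray (600 l/ha, 0.5% additive) from WP or EC formulations onto one-leaf-stage plants grown in sandy loam under greenhouse conditions.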

| Compound | pest or weed control at 320 g/ha [1] | pest or weed control at 320 g/ha [2] | pest or weed control at 320 g/ha [3] | plant injury at 20 g/ha ([4]; Zea mays, 504 h, 20 g/ha) | pest or weed control at 80 g/ha [6] | pest or weed control at 320 g/ha [6] | pest or weed control at 320 g/ha [7] | pest or weed control at 320 g/ha [8] | pest or weed control at 80 g/ha [9] | pest or weed control at 320 g/ha [9] | pest or weed control at 320 g/ha [10] | pest or weed control at 320 g/ha [11] | percent crop injury (phytotoxicity) to wheat, post-emergence at 20 g/ha [12] | pest or weed control at 80 g/ha [13] | pest or weed control at 320 g/ha [13] | pest or weed control at 80 g/ha [14] | pest or weed control at 320 g/ha ([14]; 320 g/ha) | further results |
| --- | --- | --- | --- | --- | --- | --- | --- | --- | --- | --- | --- | --- | --- | --- | --- | --- | --- | --- |
| COC(=O)C(OC)Oc1nn(-c2ncccc2F)c(-c2ccc(F)nc2)c1Cl (stereo not shown) [Example I-38] | 100% | 80% | 100% | 0% | 90% | 90% | 90% | 100% | 80% | 100% | 90% | 90% | 0% | 80% | 90% | 90% | 90% | pest or weed control at 320 g/ha [5]: 90%; pest or weed control at 20 g/ha ([9]; 20 g/ha): 80%; pest or weed control at 80 g/ha ([10]; 80 g/ha): 90% |
| CCOC(=O)C(OC)Oc1nn(-c2cnccn2)c(-c2ccc(F)nc2)c1Br (stereo not shown) [Example I-47] | 90% | 90% | – | 0% | 80% | 90% | 80% | 90% | 80% | 90% | 80% | 80% | 0% | 80% | 90% | 80% | 80% | pest or weed control at 80 g/ha ([2]; 80 g/ha): 80%; plant injury at 80 g/ha ([4]; Zea mays, 504 h, 80 g/ha, read-out: Post-emergence effect at 80 g/ha against ZEAMX in %): 0%; pest or weed control at 80 g/ha ([8]; 80 g/ha): 90%; pest or weed control at 80 g/ha ([15]; 504 h, 80 g/ha, read-out: Post-emergence effect against KCHSC in %): 90%; pest or weed control at 320 g/ha ([15]; 504 h, 320 g/ha, read-out: Post-emergence effect against KCHSC in %): 90% |
| COC(Oc1nn(-c2ncccc2F)c(-c2ccc(F)nc2)c1C1CC1)C(=O)O (stereo not shown) [Example I-89] | 90% | – | 90% | – | – | – | – | – | – | – | – | – | – | – | – | – | – | Post-emergence effect at 20 g/ha against ZEAMX in % ([4]; 20 g/ha): 0%; Post-emergence effect at 80 g/ha against ZEAMX in % ([4]; 80 g/ha): 0%; Post-emergence effect against AVEFA [7]: 80%; Post-emergence effect at 20 g/ha against TRZAS in % [12]: 0%; Post-emergence effect against KCHSC in % ([15]; 320 g/ha): 90%; Post-emergence effect against POLCO in % ([14]; 320 g/ha): 90% |
